Test results published in patent US20210393645A1, “TREATMENT FOR PROGRESSIVE MULTIPLE SCLEROSIS” (UTI LIMITED PARTNERSHIP, priority 2016, published 2021).
Structures can show the parent of a compound that is named as a salt. Positions of bridges follow the written chain, without caps; N, C: chain ends. Non-standard residues stand in square brackets, D forms with d. Residues, ends and D or L forms follow the SMILES beside them. *: point of attachment. Ileψ(thiazoline)Cys = CC[C@H](C)[C@H](N)C1=N[C@H](C(=O)*)CS1; dOrn = NCCC[C@@H](N)C(=O)O

Each molecule was assayed on T-cells (assay: Proliferation of T-lymphocytes (3H-thymidine) in anti-CD3/anti-CD28 activated splenocytes). Settings: Mus musculus, T-cell, 72 h; drug 10 μM, vs activated splenocytes; read-out: mean reduction of 3H-thymidine incorporation (T-cell proliferation).
Assay type: cell-based, mouse
Protocol: A previously published protocol was used for isolating and activating T-cells (Keough et al., Nature Comm 7:11312, 2016). Spleens from female C57B16 mice were harvested and after mechanical dissociation the cell suspension was passed through a 70 μm cell strainer and separated by Ficoll gradient (1800 RPM, 30 min). Splenocytes were plated (2.5×10^5 cells in 100 μl/well) in anti-CD3 antibody coated 96-well plates (1,000 ng m1^−1 plate-bound anti-CD3 and 1,000 ng m1^−1 anti-CD28 suspended in media) to activate T-cells. Directly before plating, wells were treated with respective drugs in a final concentration of 10 μM. Cells were cultured in RPMI 1640 medium, supplemented with 10% FBS, 1 μM sodium pyruvate, 2 mM L-alanyl-L-glutamine, 1% penicillin/streptomycin, 1% HEPES and 0.05 mM 2-mercaptoethanol (all supplements were from Invitrogen). After 48 h, ^3H-thymidine was added in a concentration of 1 μCi per well, and cells were harvested after 24 h on filter mats. Mats were then evaluated for radioactivity (counts per minute) using a liquid scintillation counter.

Molecule | inhibition at 10 µM
OCCN(CCO)c1nc(N2CCCCC2)c2nc(N(CCO)CCO)nc(N3CCCCC3)c2n1 [DIPYRIDAMOLE] | 89.3%
CN(C)CCCN1c2ccccc2CCc2ccccc21 [IMIPRAMINE HYDROCHLORIDE] | 66.4%
O=C1c2c(O)ccc(O)c2C(=O)c2c(NCCNCCO)ccc(NCCNCCO)c21 [MITOXANTHRONE HYDROCHLORIDE] | 99.7%
CN(C)CCCN1c2ccccc2Sc2ccc(Cl)cc21 [CHLORPROMAZINE] | 99.4%
N[C@@H](C(=O)N[C@@H]1C(=O)N2C(C(=O)O)=C(Cl)CS[C@H]12)c1ccccc1 [CEFACLOR] | 23%
OC(c1cc(C(F)(F)F)nc2c(C(F)(F)F)cccc12)C1CCCCN1 (stereo not drawn) [MEFLOQUINE] | 62.3%

Same assay, conditions: drug 10 μM, data not shown

Molecule | toxic effects in the T-cell proliferation test
O=C1c2c(O)ccc(O)c2C(=O)c2c(NCCNCCO)ccc(NCCNCCO)c21 [MITOXANTHRONE HYDROCHLORIDE] | toxic effects
CN(C)CCCN1c2ccccc2Sc2ccc(Cl)cc21 [CHLORPROMAZINE] | toxic effects

Same assay, conditions: drug 10 μM, vs activated splenocytes

Molecule | mean reduction of 3H-thymidine incorporation (T-cell proliferation) | increase of T-cell proliferation
TRIMEPRAZINE TARTRATE | 43.3% | –
CC12CC3CC(C)(C1)CC(N)(C3)C2 [MEMANTINE HYDROCHLORIDE] | – | 17.5%

What follows are molecules tested on human neurons (assay: Iron (FeSO4) mediated neurotoxicity screening, MAP-2 positive neurons counted). Settings: Homo sapiens, Neuron, 24 h, read-out: Drug % control (mean): number of neurons normalized to untreated control.
Assay type: cell-based
Summary of the method: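 Fetal human neurons (15-20 wk), plated with cytosine arabinoside, were pre-incubated 1 h with compounds (10 mM DMSO stocks) before FeSO4 at 25-50 μM final. Cells fixed a day later; MAP-2 immunostaining plus Hoechst nuclei imaged automatically, sites per well averaged; quadruplicates.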

Molecule | viability at 10 µM
COc1cc2c(c(OC)c1OC)-c1ccc(OC)c(=O)cc1[C@@H](NC(C)=O)CC2 [COLCHICINE] | 3.12%
COc1cc(NC(C)CCCN)c2ncccc2c1 (stereo not drawn) [PRIMAQUINE DIPHOSPHATE] | 89.1%
CC[C@H](C)C(=O)O[C@H]1C[C@@H](C)C=C2C=C[C@H](C)[C@H](CC[C@@H]3C[C@@H](O)CC(=O)O3)[C@H]21 [LOVASTATIN] | 32.2%
O=P1(N(CCCl)CCCl)NCCCO1 (stereo not drawn) [CYCLOPHOSPHAMIDE HYDRATE] | 6.39%
Clc1cccc(Cl)c1N=C1NCCN1 [CLONIDINE HYDROCHLORIDE] | 7.47%

Same assay, conditions: Homo sapiens, Neuron; drug 10 μM 1 h before FeSO4 25 or 50 μM; MAP-2 neurons after 24 h; read-out: Drug % control (mean): number of neurons normalized to untreated control

Molecule | viability at 10 µM
OCCN(CCO)c1nc(N2CCCCC2)c2nc(N(CCO)CCO)nc(N3CCCCC3)c2n1 [DIPYRIDAMOLE] | 165%
CN(C)CCCN1c2ccccc2CCc2ccccc21 [IMIPRAMINE HYDROCHLORIDE] | 106%
O=C1c2c(O)ccc(O)c2C(=O)c2c(NCCNCCO)ccc(NCCNCCO)c21 [MITOXANTHRONE HYDROCHLORIDE] | 52.5%
CC12CC3CC(C)(C1)CC(N)(C3)C2 [MEMANTINE HYDROCHLORIDE] | 53.2%
CN(C)CCCN1c2ccccc2Sc2ccc(Cl)cc21 [CHLORPROMAZINE] | 98.8%
CC[C@H](C)[C@H](N)C1=N[C@H](C(=O)N[C@@H](CC(C)C)C(=O)N[C@H](CCC(=O)O)C(=O)N[C@H](C(=O)N[C@H]2CCCCNC(=O)[C@H](CC(N)=O)NC(=O)[C@@H](CC(=O)O)NC(=O)[C@H](Cc3cnc[nH]3)NC(=O)[C@@H](Cc3ccccc3)NC(=O)[C@H]([C@@H](C)CC)NC(=O)[C@@H](CCCN)NC2=O)[C@@H](C)CC)CS1 [BACITRACIN] ({Ileψ(thiazoline)Cys}-L[dE]IK[dOrn]I[dF]H[dD]N; lactam 4-C) | 5.04%
CC(C)c1nc(N(C)S(C)(=O)=O)nc(-c2ccc(F)cc2)c1/C=C/[C@@H](O)C[C@@H](O)CC(=O)O [ROSUVASTATIN] | 35.4%
OC[C@H]1O[C@@H](O[C@@H]2[C@@H](CO)OC(O)(CO)[C@H]2O)[C@H](O)[C@@H](O)[C@H]1O (mixture of isomers) [LACTULOSE] | 80.8%
CN(C)C(=O)Oc1ccc[n+](C)c1 [PYRIDOSTIGMINE BROMIDE] | 35.8%
O=C1NC(=O)C(c2ccccc2)(c2ccccc2)N1 [PHENYTOIN SODIUM] | 30.1%
O=C(O)c1cc2cc(Cl)ccc2[nH]1 [5-CHLOROINDOLE-2-CARBOXYLIC ACID] | 37.3%
CCCCCCCCCCC[C@@H](C[C@@H]1OC(=O)[C@H]1CCCCCC)OC(=O)[C@H](CC(C)C)NC=O [ORLISTAT] | 1%
CN(CCOc1ccc(CC2SC(=O)NC2=O)cc1)c1ccccn1 (stereo not drawn) [ROSIGLITAZONE] | 77.6%
CN1C(C(=O)Nc2ccccn2)=C(O)c2ccccc2S1(=O)=O [PIROXICAM] | 36.2%
CCOC(=O)[C@H](CCc1ccccc1)N[C@@H](C)C(=O)N1[C@H](C(=O)O)C[C@H]2CCCC[C@@H]21 [TRANDOLAPRIL] | 72.3%
Oc1ncnc2[nH]ncc12 [ALLOPURINOL] | 25.5%
COC(=O)[C@@H]1[C@H]2C[C@H]3c4[nH]c5ccccc5c4CCN3C[C@@H]2CC[C@@H]1O [YOHIMBINE HYDROCHLORIDE] | 100%
COc1ccc2cc(CCC(C)=O)ccc2c1 [NABUMETONE] | 48.9%
C=C[C@H]1C[N@@]2CC[C@H]1C[C@H]2[C@H](O)c1ccnc2ccc(OC)cc12 [QUININE SULFATE] | 21.3%
N[C@@H](C(=O)N[C@@H]1C(=O)N2C(C(=O)O)=C(Cl)CS[C@H]12)c1ccccc1 [CEFACLOR] | 89.9%
NC(=O)C[S+]([O-])C(c1ccccc1)c1ccccc1 (stereo not drawn) [MODAFINIL] | 43.9%
CCCNCC(O)COc1ccccc1C(=O)CCc1ccccc1 (stereo not drawn) [PROPAFENONE HYDROCHLORIDE] | 51.3%
COC(=O)Nc1nc2ccc(C(=O)c3ccccc3)cc2[nH]1 [MEBENDAZOLE] | 2.48%

Molecule | viability at 10 µM
Nc1ccc(/N=N/c2ccccc2)c(N)n1 [PHENAZOPYRIDINE HYDROCHLORIDE] | 101%
CC(=O)/N=c1/sc(S(N)(=O)=O)nn1C [METHAZOLAMIDE] | 54.3%
CN(Cc1cnc2nc(N)nc(N)c2n1)c1ccc(C(=O)N[C@@H](CCC(=O)O)C(=O)O)cc1 [METHOTREXATE] | 43.3%
CCCCc1oc2ccccc2c1C(=O)c1cc(I)c(OCCN(CC)CC)c(I)c1 [AMIODARONE HYDROCHLORIDE] | 71.3%
CC(C)NCC(O)COc1cccc2[nH]ccc12 (stereo not drawn) [PINDOLOL] | 62.6%
CCOC(=O)[C@H](CCc1ccccc1)N[C@H]1CCc2ccccc2N(CC(=O)O)C1=O [BENAZEPRIL HYDROCHLORIDE] | 72.2%
C[N+](C)(C)CCOC(N)=O [CARBACHOL] | 8.87%
CC(=O)OCC(CCn1cnc2cnc(N)nc21)COC(C)=O [FAMCICLOVIR] | 91%
NC12CC3CC(CC(C3)C1)C2 [AMANTADINE HYDROCHLORIDE] | 52.6%
NC(=O)NO [HYDROXYUREA] | 3.31%
CCN(CC)CCNC(=O)c1ccc(N)cc1 [PROCAINAMIDE HYDROCHLORIDE] | 64.3%
CC[C@H](C)C(=O)O[C@H]1C[C@H](O)C=C2C=C[C@H](C)[C@H](CC[C@@H](O)C[C@@H](O)CC(=O)O)[C@H]21 [PRAVASTATIN SODIUM] | 40.5%
CCN(CC)CCNC(=O)c1cc(Cl)c(N)cc1OC [METOCLOPRAMIDE HYDROCHLORIDE] | 37.9%
O=C1C(O)=C([C@H]2CC[C@H](c3ccc(Cl)cc3)CC2)C(=O)c2ccccc21 [ATOVAQUONE] | 67.7%
CCn1cc(C(=O)O)c(=O)c2cc(F)c(N3CCNCC3)cc21 [NORFLOXACIN] | 13.6%
CN1CCN(C2=Nc3ccccc3Oc3ccc(Cl)cc32)CC1 [LOXAPINE SUCCINATE] | 65.9%
Nc1nc2nc[nH]c2c(=S)[nH]1 [THIOGUANINE] | 21.7%
CN1CCC(=C2c3ccccc3CC(=O)c3sccc32)CC1 [KETOTIFEN FUMARATE] | 1.77%
CCC1(c2ccccc2)C(=O)NCNC1=O [PRIMIDONE] | 45.2%
O=C(O)c1cc(-c2ccc(F)cc2F)ccc1O [DIFLUNISAL] | 4.12%
O=C(CCCN1CCC(O)(c2ccc(Cl)cc2)CC1)c1ccc(F)cc1 [HALOPERIDOL] | 6.12%
OC(c1cc(C(F)(F)F)nc2c(C(F)(F)F)cccc12)C1CCCCN1 (stereo not drawn) [MEFLOQUINE] | 47%

Same assay, conditions: drug 10 μM 1 h before FeSO4 25 or 50 μM; MAP-2 neurons after 24 h

Molecule | Drug % control (mean): number of neurons normalized to untreated control
TRIMEPRAZINE TARTRATE | 73.31%
NCC[C@H](O)C(=O)N[C@@H]1C[C@H](N)[C@@H](O[C@H]2O[C@H](CN)[C@@H](O)[C@H](O)[C@H]2O)[C@H](O)[C@H]1O[C@H]1O[C@H](CO)[C@@H](O)[C@H](N)[C@H]1O.O=S(=O)(O)O.O=S(=O)(O)O [AMIKACIN SULFATE] | 35.92%
Nc1nc(=O)c2c([nH]1)NCC(CNc1ccc(C(=O)N[C@@H](CCC(=O)[O-])C(=O)[O-])cc1)N2C=O.[Ca+2] (stereo partly drawn) [LEUCOVORIN CALCIUM] | 24.84%
